According to US7618964B2, “Benzamide derivatives, their manufacture and use as pharmaceutical agents” (Hoffmann-La Roche Inc., priority 2004, dated 2009):

Assays:
Lck (p56^lck, active) = biological target: T1, Lck (p56^lck, active) (Homo sapiens, UniProt P06239); assay: SRC-Inhibitor-Assay (time-resolved fluorescence kinase assay), Lck; assay type: biochemical; conditions: ATP 5 μM, peptide 10 μM, enzyme 2.5 U/ml, pre-incubated 15 min at 15° C.
T1 construct: purchased UBI, Upstate Biotech, Inc
Source text: (§1) The activity of the compounds according to this invention as inhibitors for the src-family tyrosine kinases was shown by using the following assay.
(§2) SRC-Inhibitor-Assay Parameters:
(§3) Time-resolved Fluorescence Assay: Reader: Perkin Elmer, Wallac Viktor 1420-040 multilabel counter; Liquid handling system: Beckman Coulter, Biomek 2000.
(§4) ATP, Tween™ 20, 4-(2-hydroxyethyl)-1-piperazineethanesulfonic acid (HEPES) were purchased from Roche Molecular Biochemicals, MgCl2 and MnCl2 were purchased from Merck Eurolab, Tris(2-carboxyethyl)phosphine hydrochloride (TCEP) was purchased from Pierce, 384 Well low volume fluorescence plates was purchased from Falcon.
(§5) At first the enzyme is pre-incubated for 15 min. at 15° C. in aqueous solution with corresponding amounts of inhibitors according to this invention. Then the phosphorylation reaction is started by adding a reaction mixture, containing ATP, Peptide and PT66, and subsequent shaking. The proceeding of this reaction is immediately monitored using time resolved fluorescence spectroscopy in a suitable well plate reader.
(§6) The IC50-values can be obtained from the reaction rates by using a non-linear curve fit (XLfit software (ID Business Solution Ltd., Guilford, Surrey, UK))

[1] = biological target: T2, Src (p60^c-src, partially purified) (Homo sapiens, UniProt P12931); assay: SRC-Inhibitor-Assay (time-resolved fluorescence kinase assay), Src; assay type: biochemical; conditions: ATP 5 μM, peptide 10 μM, enzyme 2.5 U/ml, pre-incubated 15 min at 15° C.
T2 construct: purchased UBI, Upstate Biotech, Inc
Source text: as §1, §2, §3, §4, §5, §6

T2 sequence (P12931 whole entry, species assumed): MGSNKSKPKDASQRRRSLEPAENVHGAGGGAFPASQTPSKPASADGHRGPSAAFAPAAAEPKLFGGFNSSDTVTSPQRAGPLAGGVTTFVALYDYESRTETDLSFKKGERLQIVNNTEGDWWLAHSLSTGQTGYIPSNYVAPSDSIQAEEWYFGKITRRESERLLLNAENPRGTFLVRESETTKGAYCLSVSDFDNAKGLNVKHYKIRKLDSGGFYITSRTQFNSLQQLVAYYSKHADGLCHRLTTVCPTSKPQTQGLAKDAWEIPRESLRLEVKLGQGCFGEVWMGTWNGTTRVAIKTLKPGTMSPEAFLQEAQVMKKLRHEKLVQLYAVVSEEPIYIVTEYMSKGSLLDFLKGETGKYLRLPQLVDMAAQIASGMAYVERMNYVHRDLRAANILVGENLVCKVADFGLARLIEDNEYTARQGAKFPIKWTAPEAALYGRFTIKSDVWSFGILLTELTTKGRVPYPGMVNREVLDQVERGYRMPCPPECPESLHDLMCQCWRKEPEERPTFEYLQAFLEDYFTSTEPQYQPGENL
T1 sequence (P06239 whole entry, species assumed): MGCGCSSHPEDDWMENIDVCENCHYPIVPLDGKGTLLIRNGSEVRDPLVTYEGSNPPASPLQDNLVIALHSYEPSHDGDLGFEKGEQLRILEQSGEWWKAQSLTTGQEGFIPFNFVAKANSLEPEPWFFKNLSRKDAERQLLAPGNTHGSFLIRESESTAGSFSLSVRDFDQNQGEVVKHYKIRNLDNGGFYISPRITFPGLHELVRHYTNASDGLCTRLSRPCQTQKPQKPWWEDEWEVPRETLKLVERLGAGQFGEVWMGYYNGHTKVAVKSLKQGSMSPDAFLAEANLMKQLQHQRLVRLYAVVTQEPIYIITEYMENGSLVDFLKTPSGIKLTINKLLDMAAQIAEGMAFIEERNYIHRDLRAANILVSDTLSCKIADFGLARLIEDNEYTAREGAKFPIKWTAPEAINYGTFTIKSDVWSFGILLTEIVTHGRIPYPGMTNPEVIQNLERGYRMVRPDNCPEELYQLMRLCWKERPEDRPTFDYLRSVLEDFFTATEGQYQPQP

| Structure (SMILES) | IC50 (Lck (p56^lck, active)) [nM] | IC50 [1] [nM] |
| --- | --- | --- |
| O=C(Nc1cnc2[nH]c(-c3ccccc3)nc2c1)c1ccccc1Cl [Example 1-1, 2-Chloro-N-(2-phenyl-3H-imidazo[4,5-b]pyridin-6-yl)-benzamide] | 481 | 21 |
| Cc1cccc(Cl)c1C(=O)Nc1cnc2[nH]c(-c3ccccc3)nc2c1 [Example 1-2, 2-Chloro-6-methyl-N-(2-phenyl-3H-imidazo[4,5-b]pyridin-6-yl)-benzamide] | 40 to 9000 | 5 to 300 |
| O=C(Nc1cnc2[nH]c(-c3ccccc3)nc2c1)c1ccccc1Br [Example 1-3, 2-Bromo-N-(2-phenyl-3H-imidazo[4,5-b]pyridin-6-yl)-benzamide] | 40 to 9000 | 5 to 300 |
| Cc1ccc([N+](=O)[O-])cc1C(=O)Nc1cnc2[nH]c(-c3ccccc3)nc2c1 [Example 1-4, 2-Methyl-5-nitro-N-(2-phenyl-3H-imidazo[4,5-b]pyridin-6-yl)-benzamide] | 1000 to 9000 | 300 to 3500 |
| O=C(Nc1cnc2[nH]c(-c3ccccc3)nc2c1)c1cc([N+](=O)[O-])ccc1Cl [Example 1-5, 2-Chloro-5-nitro-N-(2-phenyl-3H-imidazo[4,5-b]pyridin-6-yl)-benzamide] | 1000 to 9000 | 300 to 3500 |
| O=C(Nc1cnc2[nH]c(-c3ccccc3)nc2c1)c1ccccc1 [Example 1-6, N-(2-Phenyl-3H-imidazo[4,5-b]pyridin-6-yl)-benzamide] | 40 to 9000 | 5 to 300 |
| COCCC(=O)Nc1cccc(-c2nc3cc(NC(=O)c4ccccc4Cl)cnc3[nH]2)c1 [Example 1-7, 2-Chloro-N-{2-[3-(3-methoxy-propionylamino)-phenyl]-3H-imidazo[4,5-b]pyridin-6-yl}-benzamide] | 40 to 9000 | 5 to 300 |
| Cc1ccc(N)cc1C(=O)Nc1cnc2[nH]c(-c3ccccc3)nc2c1 [Example 2-1, 5-Amino-2-methyl-N-(2-phenyl-3H-imidazo[4,5-b]pyridin-6-yl)-benzamide] | 160 | 135 |
| Nc1ccc(Cl)c(C(=O)Nc2cnc3[nH]c(-c4ccccc4)nc3c2)c1 [Example 3-1, 5-Amino-2-chloro-N-(2-phenyl-3H-imidazo[4,5-b]pyridin-6-yl)-benzamide] | 40 to 9000 | 5 to 300 |
| CCN(CC)CCOc1ccc(-c2nc3cc(NC(=O)c4ccccc4Cl)cnc3[nH]2)cc1 [Example 4-1, 2-Chloro-N-{2-[4-(2-diethylamino-ethoxy)-phenyl]-3H-imidazo[4,5-b]pyridin-6-yl}-benzamide] | 40 to 9000 | 5 to 300 |
| COCCOc1ccc(-c2nc3cc(NC(=O)c4ccccc4Cl)cnc3[nH]2)cc1 [Example 4-2, 2-Chloro-N-{2-[4-(2-methoxy-ethoxy)-phenyl]-3H-imidazo[4,5-b]pyridin-6-yl}-benzamide] | 40 to 9000 | 5 to 300 |
| O=C(Nc1cnc2[nH]c(-c3ccc(N4CCOCC4)cc3)nc2c1)c1ccccc1Cl [Example 4-5, 2-Chloro-N-[2-(4-morpholin-4-yl-phenyl)-3H-imidazo[4,5-b]pyridin-6-yl]-benzamide] | 49 | 7 |
| O=C(Nc1cnc2[nH]c(-c3cccs3)nc2c1)c1ccccc1Cl [Example 4-6, 2-Chloro-N-(2-thiophen-2-yl-3H-imidazo[4,5-b]pyridin-6-yl)-benzamide] | 40 to 9000 | 5 to 300 |
| O=C(Nc1cnc2[nH]c(-c3ccsc3)nc2c1)c1ccccc1Cl [Example 4-7, 2-Chloro-N-(2-thiophen-3-yl-3H-imidazo[4,5-b]pyridin-6-yl)-benzamide] | 40 to 9000 | 5 to 300 |
| CN1CCN(c2ccc(-c3nc4cc(NC(=O)c5ccccc5Cl)cnc4[nH]3)cc2)CC1 [Example 4-8, 2-Chloro-N-{2-[4-(4-methyl-piperazin-1-yl)-phenyl]-3H-imidazo[4,5-b]pyridin-6-yl}-benzamide] | 40 to 9000 | 5 to 300 |
| COCC(COC)NC(=O)c1cccc(-c2nc3cc(NC(=O)c4ccccc4Cl)cnc3[nH]2)c1 [Example 6-3, 2-Chloro-N-(2-{3-[2-methoxy-1-methoxymethyl-ethylcarbamoyl]-phenyl}-3H-imidazo[4,5-b]pyridin-6-yl)-benzamide] | 40 to 9000 | 5 to 300 |

| Structure (SMILES) | IC50 (Lck (p56^lck, active)) [nM] | IC50 [1] [nM] |
| --- | --- | --- |
| Cc1ccc(-c2nc3cc(NC(=O)c4ccccc4Cl)cnc3[nH]2)cn1 [Example 7-2, 2-Chloro-N-[2-(6-methyl-pyridin-3-yl)-3H-imidazo[4,5-b]pyridine-6-yl]-benzamide] | 40 to 9000 | 5 to 300 |
| CSc1cccc(-c2nc3cc(NC(=O)c4ccccc4Cl)cnc3[nH]2)c1 [Example 7-3, 2-Chloro-N-[2-(3-methylsulfanyl-phenyl)-3H-imidazo[4,5-b]pyridine-6-yl]-benzamide] | 40 to 9000 | 5 to 300 |
| O=C(Nc1cnc2[nH]c(-c3ccc4[nH]cnc4c3)nc2c1)c1ccccc1Cl [Example 7-5, N-[2-(1H-Benzoimidazol-5-yl)-3H-imidazo[4,5-b]pyridine-6-yl]-2-chloro-benzamide] | 40 to 9000 | 5 to 300 |
| O=C(Nc1cnc2[nH]c(-c3ccc(N4CCOCC4)nc3)nc2c1)c1ccccc1Cl [Example 7-7, 2-Chloro-N-[2-(6-morpholin-4-yl-pyridin-3-yl)-3H-imidazo[4,5-b]pyridine-6-yl]-benzamide] | 40 to 9000 | 5 to 300 |
| C[S+]([O-])c1cccc(-c2nc3cc(NC(=O)c4ccccc4Cl)cnc3[nH]2)c1 (centres unmarked) [Example 9-1, 2-Chloro-N-[2-(3-methanesulfinyl-phenyl)-3H-imidazo[4,5-b]pyridine-6-yl]-benzamide] | 40 to 9000 | 5 to 300 |
| Nc1cccc(-c2nc3cc(NC(=O)c4ccccc4Cl)cnc3[nH]2)c1 [Example 10-1, N-[2-(3-Amino-phenyl)-3H-imidazo[4,5-b]pyridine-6-yl]-2-chloro-benzamide] | 40 to 9000 | 5 to 300 |
| CC(=O)Nc1cccc(-c2nc3cc(NC(=O)c4ccccc4Cl)cnc3[nH]2)c1 [Example 11-1, N-[2-(3-Acetylamino-phenyl)-3H-imidazo[4,5-b]pyridine-6-yl]-2-chloro-benzamide] | 40 to 9000 | 5 to 300 |
| O=C(Nc1cnc2[nH]c(-c3ccccc3)cc2c1)c1ccccc1Cl [Example 12-1, 2-Chloro-N-(2-phenyl-1H-pyrrolo[2,3-b]pyridine-5-yl)-benzamide] | 40 to 9000 | 5 to 300 |
| O=C(Nc1cnc2[nH]c(-c3ccccc3)cc2c1)c1ccc(Cl)cc1Cl [Example 12-4, 2,4-Dichloro-N-(2-phenyl-1H-pyrrolo[2,3-b]pyridine-5-yl)-benzamide] | 40 to 9000 | 5 to 300 |
| Cc1cccc(Cl)c1C(=O)Nc1cnc2[nH]c(-c3ccccc3)cc2c1 [Example 12-5, 2-Chloro-6-methyl-N-(2-phenyl-1H-pyrrolo[2,3-b]pyridine-5-yl)-benzamide] | 40 to 9000 | 5 to 300 |
| Cc1ccccc1C(=O)Nc1cnc2[nH]c(-c3ccccc3)cc2c1 [Example 12-7, 2-Methyl-N-(2-phenyl-1H-pyrrolo[2,3-b]pyridine-5-yl)-benzamide] | 40 to 9000 | 5 to 300 |
| COc1cc(OC)cc(C(=O)Nc2cnc3[nH]c(-c4ccccc4)cc3c2)c1 [Example 12-12, 3,5-Dimethoxy-N-(2-phenyl-1H-pyrrolo[2,3-b]pyridine-5-yl)-benzamide] | 40 to 9000 | 5 to 300 |
| COCCOc1ccc(-c2cc3cc(NC(=O)c4ccccc4OC)cnc3[nH]2)cc1 [Example 12-14, 2-Methoxy-N-{2-[4-(2-methoxy-ethoxy)-phenyl]-1H-pyrrolo[2,3-b]pyridin-5-yl}-benzamide] | 40 to 9000 | 5 to 300 |
| COCCN(CCOC)c1ccc(-c2nc3cc(NC(=O)c4ccccc4Cl)cnc3[nH]2)cc1F [Example 13-1, N-(2-{4-[Bis-(2-methoxy-ethyl)-amino]-3-fluoro-phenyl}-3H-imidazo[4,5-b]pyridin-6-yl)-2-chloro-benzamide] | 40 to 9000 | 5 to 300 |
| COCCCNc1cc(-c2nc3cc(NC(=O)c4ccccc4Cl)cnc3[nH]2)ccn1 [Example 14-1, 2-Chloro-N-{2-[2-(3-methoxy-propylamino)-pyridin-4-yl]-3H-imidazo[4,5-b]pyridin-6-yl}-benzamide] | 40 to 9000 | 5 to 300 |
